Source: patent publication US10738028B2, “Spiro three-membered ring, spiro five-membered ring peptide deformylase inhibitor and use thereof in antibacteria and anti-tumor” (priority 2016, dated 2020)

Tests used:
Type in all cases: cell-based
[1] = system: Enterococcus faecalis (EFA); assay: MIC, two-fold agar dilution (CLSI), clinical isolates; conditions: for Anti-bacterial activity (MIC), strain EFA 15-1: clinical isolate EFA 15-1; for Anti-bacterial activity (MIC), strain EFA 15-2: clinical isolate EFA 15-2; for Anti-bacterial activity (MIC), strain EFA 15-3: clinical isolate EFA 15-3; for Anti-bacterial activity (MIC), strain EFA 15-4: clinical isolate EFA 15-4; for Anti-bacterial activity (MIC), strain EFA 15-5: clinical isolate EFA 15-5; for Anti-bacterial activity (MIC), strain EFA 15-6: clinical isolate EFA 15-6; for Anti-bacterial activity (MIC), strain EFA 15-9: clinical isolate EFA 15-9
Method in brief: (§1)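 Test samples were assayed by the CLSI-recommended two-fold agar dilution method, and the minimum inhibitory concentration against each tested strain was determined.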

[2] = system: Enterococcus faecium (EFM); assay: as above; conditions: for Anti-bacterial activity (MIC), strain EFM 15-1: clinical isolate EFM 15-1; for Anti-bacterial activity (MIC), strain EFM 15-2: clinical isolate EFM 15-2; for Anti-bacterial activity (MIC), strain EFM 15-3: clinical isolate EFM 15-3; for Anti-bacterial activity (MIC), strain EFM 15-4: clinical isolate EFM 15-4; for Anti-bacterial activity (MIC), strain EFM 15-5: clinical isolate EFM 15-5; for Anti-bacterial activity (MIC), strain EFM 15-6: clinical isolate EFM 15-6
Method in brief: as §1

[3] = system: Escherichia coli (including ESBLs, non-ESBLs); assay: as above; conditions: for Anti-bacterial activity (MIC), strain ECO+ 15-1: clinical isolate ECO+ 15-1; for Anti-bacterial activity (MIC), strain ECO+ 15-2: clinical isolate ECO+ 15-2; for Anti-bacterial activity (MIC), strain ECO+ 15-3: clinical isolate ECO+ 15-3; for Anti-bacterial activity (MIC), strain ECO+ 15-4: clinical isolate ECO+ 15-4; for Anti-bacterial activity (MIC), strain ECO− 15-1: clinical isolate ECO− 15-1; for Anti-bacterial activity (MIC), strain ECO− 15-2: clinical isolate ECO− 15-2; for Anti-bacterial activity (MIC), strain ECO− 15-3: clinical isolate ECO− 15-3; for Anti-bacterial activity (MIC), strain ECO− 15-4: clinical isolate ECO− 15-4
Method in brief: as §1

[4] = system: Moraxella catarrhalis (BCA); assay: as above; conditions: for Anti-bacterial activity (MIC), strain BCA 14-1: clinical isolate BCA 14-1; for Anti-bacterial activity (MIC), strain BCA 14-4: clinical isolate BCA 14-4; for Anti-bacterial activity (MIC), strain BCA 14-5: clinical isolate BCA 14-5; for Anti-bacterial activity (MIC), strain BCA 14-6: clinical isolate BCA 14-6; for Anti-bacterial activity (MIC), strain BCA 14-7: clinical isolate BCA 14-7; for Anti-bacterial activity (MIC), strain BCA 14-8: clinical isolate BCA 14-8; for Anti-bacterial activity (MIC), strain BCA 14-10: clinical isolate BCA 14-10
Method in brief: as §1

[5] = system: Streptococcus pneoumoniae (SPN); assay: as above; conditions: for Anti-bacterial activity (MIC), strain SPN 16-2: clinical isolate SPN 16-2; for Anti-bacterial activity (MIC), strain SPN 16-4: clinical isolate SPN 16-4
Method in brief: as §1

[6] = system: methicillin-resistant Staphylococcus aureus (MRSA); assay: as above; conditions: for Anti-bacterial activity (MIC), strain MRSA 15-1: clinical isolate MRSA 15-1; for Anti-bacterial activity (MIC), strain MRSA 15-2: clinical isolate MRSA 15-2; for Anti-bacterial activity (MIC), strain MRSA 15-3: clinical isolate MRSA 15-3; for Anti-bacterial activity (MIC), strain MRSA 15-4: clinical isolate MRSA 15-4
Method in brief: as §1

[7] = system: methicillin-resistant Staphylococcus epidermidis (MRSE); assay: as above; conditions: for Anti-bacterial activity (MIC), strain MRSE 15-1: clinical isolate MRSE 15-1; for Anti-bacterial activity (MIC), strain MRSE 15-2: clinical isolate MRSE 15-2; for Anti-bacterial activity (MIC), strain MRSE 15-3: clinical isolate MRSE 15-3; for Anti-bacterial activity (MIC), strain MRSE 15-7: clinical isolate MRSE 15-7
Method in brief: as §1

[8] = system: methicillin-sensitive Staphylococcus aureus (MSSA); assay: as above; conditions: for Anti-bacterial activity (MIC), strain MSSA 15-3: clinical isolate MSSA 15-3; for Anti-bacterial activity (MIC), strain MSSA 15-4: clinical isolate MSSA 15-4; for Anti-bacterial activity (MIC), strain MSSA 15-5: clinical isolate MSSA 15-5; for Anti-bacterial activity (MIC), strain MSSA 15-6: clinical isolate MSSA 15-6
Method in brief: as §1

[9] = system: methicillin-sensitive Staphylococcus epidermidis (MSSE); assay: as above; conditions: for Anti-bacterial activity (MIC), strain MSSE 15-3: clinical isolate MSSE 15-3; for Anti-bacterial activity (MIC), strain MSSE 15-4: clinical isolate MSSE 15-4; for Anti-bacterial activity (MIC), strain MSSE 15-5: clinical isolate MSSE 15-5; for Anti-bacterial activity (MIC), strain MSSE 15-6: clinical isolate MSSE 15-6
Method in brief: as §1

[10] = system: HCT-116 colorectal cancer cell line; assay: CCK-8 proliferation inhibition; conditions: Homo sapiens, HCT-116, 72 h, concentration of 30 μM; 72 hours; CCK-8; read-out: HCT116 inhibition rate/%
Method in brief: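 Growth inhibition is read by CCK-8 (1:10 dilution) after 72 h of compound exposure. HCT-116 cells grow in McCoy's 5A containing 10% newborn bovine serum at 2000 cells/well, with 1‰ DMSO as vehicle control.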

Work on O=CN(O)C[C@@H](CC1CCCC1)C(=O)N1CC2(CC2)C[C@H]1c1nc2ccccc2[nH]1 [Example 42, N—((R)-3-((S)-6-(1H-benzimidazol-2-yl)-5-azaspiro[2.4]heptane-5-yl)-2-(cyclopentylmethyl)-3-propylcarbonyl)-N-hydroxyformamide] yielded an Anti-bacterial activity (MIC), strain EFA 15-1 [1] of 16 µg/mL, an Anti-bacterial activity (MIC), strain EFA 15-2 [1] of 16 µg/mL and an Anti-bacterial activity (MIC), strain EFA 15-3 [1] of 4 µg/mL. It also gave an Anti-bacterial activity (MIC), strain EFA 15-4 [1] of 16 µg/mL, an Anti-bacterial activity (MIC), strain EFA 15-5 [1] of 16 µg/mL and an Anti-bacterial activity (MIC), strain EFA 15-6 [1] of 16 µg/mL. It also gave an Anti-bacterial activity (MIC), strain EFA 15-9 [1] of 16 µg/mL, an Anti-bacterial activity (MIC), strain EFM 15-1 [2] of 2 µg/mL and an Anti-bacterial activity (MIC), strain EFM 15-2 [2] of 4 µg/mL. The Anti-bacterial activity (MIC), strain EFM 15-3 [2] was 1 µg/mL, the Anti-bacterial activity (MIC), strain EFM 15-4 [2] was 4 µg/mL and the Anti-bacterial activity (MIC), strain EFM 15-5 [2] was 2 µg/mL. The Anti-bacterial activity (MIC), strain EFM 15-6 [2] was 4 µg/mL, the Anti-bacterial activity (MIC), strain ECO+ 15-1 [3] was 16 µg/mL and the Anti-bacterial activity (MIC), strain ECO+ 15-2 [3] was 32 µg/mL. For the same molecule, the Anti-bacterial activity (MIC), strain ECO+ 15-3 [3] was 32 µg/mL, the Anti-bacterial activity (MIC), strain ECO+ 15-4 [3] was 16 µg/mL and the Anti-bacterial activity (MIC), strain ECO− 15-1 [3] was 32 µg/mL. For the same molecule, the Anti-bacterial activity (MIC), strain ECO− 15-2 [3] was 32 µg/mL, the Anti-bacterial activity (MIC), strain ECO− 15-3 [3] was 32 µg/mL and the Anti-bacterial activity (MIC), strain ECO− 15-4 [3] was 32 µg/mL. The Anti-bacterial activity (MIC), strain BCA 14-1 [4] was 1 µg/mL, the Anti-bacterial activity (MIC), strain BCA 14-4 [4] was 2 µg/mL and the Anti-bacterial activity (MIC), strain BCA 14-5 [4] was 2 µg/mL. For the same molecule, the Anti-bacterial activity (MIC), strain BCA 14-6 [4] was 2 µg/mL, the Anti-bacterial activity (MIC), strain BCA 14-7 [4] was 1 µg/mL and the Anti-bacterial activity (MIC), strain BCA 14-8 [4] was 4 µg/mL. For the same molecule, the Anti-bacterial activity (MIC), strain BCA 14-10 [4] was 1 µg/mL, the Anti-bacterial activity (MIC), strain SPN 16-2 [5] was 1 µg/mL and the Anti-bacterial activity (MIC), strain SPN 16-4 [5] was 16 µg/mL. It also gave an Anti-bacterial activity (MIC), strain MRSA 15-1 [6] of 2 µg/mL, an Anti-bacterial activity (MIC), strain MRSA 15-2 [6] of 2 µg/mL and an Anti-bacterial activity (MIC), strain MRSA 15-3 [6] of 1 µg/mL. It also gave an Anti-bacterial activity (MIC), strain MRSA 15-4 [6] of 1 µg/mL, an Anti-bacterial activity (MIC), strain MRSE 15-1 [7] of 2 µg/mL and an Anti-bacterial activity (MIC), strain MRSE 15-2 [7] of 2 µg/mL. It also gave an Anti-bacterial activity (MIC), strain MRSE 15-3 [7] of 2 µg/mL, an Anti-bacterial activity (MIC), strain MRSE 15-7 [7] of 2 µg/mL and an Anti-bacterial activity (MIC), strain MSSA 15-3 [8] of 2 µg/mL. For the same molecule, the Anti-bacterial activity (MIC), strain MSSA 15-4 [8] was 2 µg/mL, the Anti-bacterial activity (MIC), strain MSSA 15-5 [8] was 1 µg/mL and the Anti-bacterial activity (MIC), strain MSSA 15-6 [8] was 2 µg/mL. The Anti-bacterial activity (MIC), strain MSSE 15-3 [9] was 2 µg/mL, the Anti-bacterial activity (MIC), strain MSSE 15-4 [9] was 2 µg/mL and the Anti-bacterial activity (MIC), strain MSSE 15-5 [9] was 2 µg/mL. It also gave an Anti-bacterial activity (MIC), strain MSSE 15-6 [9] of 2 µg/mL and an inhibition at 30 µM [10] of 14%.

CCCC[C@H](CC(=O)NO)C(=O)N1CC2(CC2)C[C@H]1C(=O)Nc1ccc(N2CCOCC2)cc1 [Example 43, (S)-5-((R)-2-(2-(hydroxyamino)-2-oxoethyl)hexanoyl)-N-(4-morpholinophenyl)-5-spiro[2.4]heptane-6-carboxamide] gave an Anti-bacterial activity (MIC), strain EFA 15-1 [1] of over 32 µg/mL, an Anti-bacterial activity (MIC), strain EFA 15-2 [1] of over 32 µg/mL and an Anti-bacterial activity (MIC), strain EFA 15-3 [1] of over 32 µg/mL. The Anti-bacterial activity (MIC), strain EFA 15-4 [1] was over 32 µg/mL, the Anti-bacterial activity (MIC), strain EFA 15-5 [1] was over 32 µg/mL and the Anti-bacterial activity (MIC), strain EFA 15-6 [1] was over 32 µg/mL. It also gave an Anti-bacterial activity (MIC), strain EFA 15-9 [1] of over 32 µg/mL, an Anti-bacterial activity (MIC), strain EFM 15-1 [2] of over 32 µg/mL and an Anti-bacterial activity (MIC), strain EFM 15-2 [2] of over 32 µg/mL. For the same molecule, the Anti-bacterial activity (MIC), strain EFM 15-3 [2] was over 32 µg/mL, the Anti-bacterial activity (MIC), strain EFM 15-4 [2] was over 32 µg/mL and the Anti-bacterial activity (MIC), strain EFM 15-5 [2] was 1 µg/mL. It also gave an Anti-bacterial activity (MIC), strain EFM 15-6 [2] of 2 µg/mL, an Anti-bacterial activity (MIC), strain ECO+ 15-1 [3] of 1 µg/mL and an Anti-bacterial activity (MIC), strain ECO+ 15-2 [3] of over 32 µg/mL. It also gave an Anti-bacterial activity (MIC), strain ECO+ 15-3 [3] of over 32 µg/mL, an Anti-bacterial activity (MIC), strain ECO+ 15-4 [3] of 1 µg/mL and an Anti-bacterial activity (MIC), strain ECO− 15-1 [3] of over 32 µg/mL. The Anti-bacterial activity (MIC), strain ECO− 15-2 [3] was over 32 µg/mL, the Anti-bacterial activity (MIC), strain ECO− 15-3 [3] was over 32 µg/mL and the Anti-bacterial activity (MIC), strain ECO− 15-4 [3] was over 32 µg/mL. The Anti-bacterial activity (MIC), strain BCA 14-1 [4] was 2 µg/mL, the Anti-bacterial activity (MIC), strain BCA 14-4 [4] was 2 µg/mL and the Anti-bacterial activity (MIC), strain BCA 14-5 [4] was 1 µg/mL. It also gave an Anti-bacterial activity (MIC), strain BCA 14-6 [4] of 1 µg/mL, an Anti-bacterial activity (MIC), strain BCA 14-7 [4] of 2 µg/mL and an Anti-bacterial activity (MIC), strain BCA 14-8 [4] of 2 µg/mL. The Anti-bacterial activity (MIC), strain BCA 14-10 [4] was 2 µg/mL, the Anti-bacterial activity (MIC), strain SPN 16-2 [5] was 1 µg/mL and the Anti-bacterial activity (MIC), strain SPN 16-4 [5] was 1 µg/mL. It also gave an Anti-bacterial activity (MIC), strain MRSA 15-1 [6] of 1 µg/mL, an Anti-bacterial activity (MIC), strain MRSA 15-2 [6] of 4 µg/mL and an Anti-bacterial activity (MIC), strain MRSA 15-3 [6] of 1 µg/mL. The Anti-bacterial activity (MIC), strain MRSA 15-4 [6] was 4 µg/mL, the Anti-bacterial activity (MIC), strain MRSE 15-1 [7] was 1 µg/mL and the Anti-bacterial activity (MIC), strain MRSE 15-2 [7] was 4 µg/mL. For the same molecule, the Anti-bacterial activity (MIC), strain MRSE 15-3 [7] was 4 µg/mL, the Anti-bacterial activity (MIC), strain MRSE 15-7 [7] was 1 µg/mL and the Anti-bacterial activity (MIC), strain MSSA 15-3 [8] was 4 µg/mL. It also gave an Anti-bacterial activity (MIC), strain MSSA 15-4 [8] of 4 µg/mL, an Anti-bacterial activity (MIC), strain MSSA 15-5 [8] of 1 µg/mL and an Anti-bacterial activity (MIC), strain MSSA 15-6 [8] of 4 µg/mL. For the same molecule, the Anti-bacterial activity (MIC), strain MSSE 15-3 [9] was 1 µg/mL, the Anti-bacterial activity (MIC), strain MSSE 15-4 [9] was 1 µg/mL and the Anti-bacterial activity (MIC), strain MSSE 15-5 [9] was 1 µg/mL. The Anti-bacterial activity (MIC), strain MSSE 15-6 [9] was 1 µg/mL and the inhibition at 30 µM [10] was 6%.
